Data reported in ChEMBL document CHEMBL4000154, “Pyristriatins A and B: Pyridino-Cyathane Antibiotics from the Basidiomycete Cyathus cf. striatus” (J Nat Prod, 2016).
pIC50: −log10 of the molar value. Converted amounts (≈) assume the structure as drawn. The source made the active and inactive calls. The rule behind the calls is not given here.

What was measured:
Mucor plumbeus = experiment: Antifungal activity against Mucor plumbeus MUCL 49355 after 24 to 48 hrs by serial dilution method; assay type: functional
Wickerhamomyces anomalus = experiment: Antifungal activity against Pichia anomala DSM 6766 after 24 to 48 hrs by serial dilution method; assay type: functional
Rhodotorula glutinis = experiment: Antifungal activity against Rhodotorula glutinis DSM 10134 after 24 to 48 hrs by serial dilution method; assay type: functional
[1] = tested on: Schizosaccharomyces pombe; experiment: Antifungal activity against Schizosaccharomyces pombe DSM 70572 after 24 to 48 hrs by serial dilution method; assay type: functional
Candida albicans = experiment: Antifungal activity against Candida albicans DSM 1665 after 24 to 48 hrs by serial dilution method; assay type: functional
HUVEC = experiment: Cytotoxicity against HUVEC after 5 days by MTT assay; assay type: cell-based; details: Homo sapiens, 120 h
[2] = tested on: Chromobacterium violaceum; experiment: Antibacterial activity against Chromobacterium violaceum DSM 30191 after 24 to 48 hrs by serial dilution method; assay type: functional
Bacillus subtilis = experiment: Antibacterial activity against Bacillus subtilis DSM 10 after 24 to 48 hrs by serial dilution method; assay type: functional
L929 = experiment: Cytotoxicity against mouse L929 cells after 5 days by MTT assay; assay type: cell-based; details: L929, 120 h
KB 3-1 = experiment: Cytotoxicity against human KB 3.1 cells after 5 days by MTT assay; assay type: functional, cell-based; details: KB 3-1, 120 h
Staphylococcus aureus = experiment: Antibacterial activity against Staphylococcus aureus DSM 346 after 24 to 48 hrs by serial dilution method; assay type: functional
Micrococcus luteus = experiment: Antibacterial activity against Micrococcus luteus DSM 1790 after 24 to 48 hrs by serial dilution method; assay type: functional
Escherichia coli [3] = details: DSM 498
Description: (§1) Antibacterial activity against Escherichia coli DSM 498 after 24 to 48 hrs by serial dilution method

Pseudomonas aeruginosa = experiment: Antibacterial activity against Pseudomonas aeruginosa PA14 after 24 to 48 hrs by serial dilution method; assay type: functional
Escherichia coli [4] = experiment: microbe, parasite or virus in culture; details: DSM 498
Description: as §1

For NYSTATIN, the MIC (Mucor plumbeus) was 9.4 µg/mL, the MIC (Wickerhamomyces anomalus) was 16.7 µg/mL and the MIC (Rhodotorula glutinis) was 66.7 µg/mL. It also gave an MIC [1] of 66.7 µg/mL and an MIC (Candida albicans) of 16.7 µg/mL.

In the case of CO[C@@H]1O[C@H]2c3c(cnc(C(=O)CO)c31)C[C@H](O)[C@@H]1C3=C(C(C)C)CC[C@]3(C)CC[C@@]21C, the pIC50 (HUVEC) was 5.20, the MIC (Mucor plumbeus) was 150 µg/mL (≈ 340 µM) and the MIC (Wickerhamomyces anomalus) was “inactive”. For the same compound, the MIC [2] was “inactive”, the MIC (Bacillus subtilis) was 9.4 µg/mL (≈ 21.3 µM) and the pIC50 (L929) was 4.81. It also gave a pIC50 (KB 3-1) of 4.90, an MIC (Rhodotorula glutinis) of 8.3 µg/mL (≈ 18.8 µM) and an MIC [1] of 8.3 µg/mL (≈ 18.8 µM). The MIC (Staphylococcus aureus) was 8.3 µg/mL (≈ 18.8 µM), the MIC (Micrococcus luteus) was 8.3 µg/mL (≈ 18.8 µM) and the MIC (Candida albicans) was “inactive”. For the same compound, the MIC (Escherichia coli [3]) was “inactive” and the MIC (Pseudomonas aeruginosa) was “inactive”.

CN(C)[C@@H]1C(O)=C(C(N)=O)C(=O)[C@@]2(O)C(O)=C3C(=O)c4c(O)cccc4[C@@](C)(O)[C@H]3[C@H](O)[C@@H]12 [OXYTETRACYCLINE] gave an MIC [2] of 2.1 µg/mL (≈ 4.56 µM), an MIC (Staphylococcus aureus) of 1 µg/mL (≈ 2.17 µM) and an MIC (Micrococcus luteus) of 8.3 µg/mL (≈ 18 µM).

With C/C(=C\c1csc(C)n1)[C@@H]1C[C@@H]2O[C@]2(C)CCC[C@H](C)[C@H](O)[C@@H](C)C(=O)C(C)(C)[C@@H](O)CC(=O)O1 [PATUPILONE] the pIC50 (HUVEC) was 9.26 and the pIC50 (KB 3-1) was 9.66.

For CO[C@H]1O[C@H]2c3c(cnc(C(=O)CO)c31)C[C@H](O)[C@@H]1C3=C(C(C)C)CC[C@]3(C)CC[C@@]21C, the pIC50 (HUVEC) was 5.23, the MIC (Mucor plumbeus) was 150 µg/mL (≈ 340 µM) and the MIC (Wickerhamomyces anomalus) was “inactive”. For the same compound, the MIC [2] was “inactive”, the MIC (Bacillus subtilis) was 9.4 µg/mL (≈ 21.3 µM) and the pIC50 (L929) was 4.79. For the same compound, the pIC50 (KB 3-1) was 4.83, the MIC (Rhodotorula glutinis) was 16.7 µg/mL (≈ 37.8 µM) and the MIC [1] was 16.7 µg/mL (≈ 37.8 µM). For the same compound, the MIC (Staphylococcus aureus) was 16.7 µg/mL (≈ 37.8 µM), the MIC (Micrococcus luteus) was 16.7 µg/mL (≈ 37.8 µM) and the MIC (Candida albicans) was “inactive”. For the same compound, the MIC (Escherichia coli [3]) was “inactive” and the MIC (Pseudomonas aeruginosa) was “inactive”.

C/C(=C\c1csc(C)n1)[C@@H]1C[C@@H]2O[C@@H]2CCC[C@H](C)[C@H](O)[C@@H](C)C(=O)C(C)(C)[C@@H](O)CC(=O)O1 [EPOTHILONE A] gave a pIC50 (L929) of 8.42.

O=C(O)c1cn(C2CC2)c2cc(N3CCNCC3)c(F)cc2c1=O [CIPROFLOXACIN] gave an MIC (Escherichia coli [4]) of no more than 2.3 µg/mL and an MIC (Bacillus subtilis) of no more than 2.3 µg/mL.
